Test results: US8759537B2, “3H-imidazo [4, 5-C] pyridine-6-carboxamides as anti-inflammatory agents” (Boehringer Ingelheim International GmbH, priority 2010, dated 2014)

Molecular target: mPGES-1 (Homo sapiens (Human), UniProt O14684)
Test: A549 cell-based assay (PGE2 formation, IL-1β stimulated, 50% human serum)
Conditions: A549 cells, IL-1β 5 ng/ml, read-out: mPGES-1 inhibitory effect in the cell assay, IC50
Experimental: Although the enzymatic assay is a high throughput assay the disadvantage is that it uses a recombinant protein which is not in its natural environment. Accordingly a cellular assay was established in which a cell line of human origin (A549) expressing the mPGES-1 protein was used. In addition in order to mimic the situation in humans in which compounds can be bound to plasma proteins 50% human serum is added in the assay.
Cells were detached using Trypsin-EDTA. A549 cells were seeded in a 384-well collagene plate at a density of 7000 cells/well (50 μl) in F-12 medium containing 1% Penicillin-Streptomycin and 50% human serum. The cells were allowed to attach for 3-4 h. […] The total volume is 100 μl.
Concentrations of PGE2 in the cell free medium (10 μl) were measured using a commercially available HTRF kit from Cisbio (as described above). The PGE2 formation in the absence of test compound was taken as 100%.
IC50 values were derived from at 6-8 point titrations using conventional software.

Sequence of mPGES-1 (O14684 whole entry): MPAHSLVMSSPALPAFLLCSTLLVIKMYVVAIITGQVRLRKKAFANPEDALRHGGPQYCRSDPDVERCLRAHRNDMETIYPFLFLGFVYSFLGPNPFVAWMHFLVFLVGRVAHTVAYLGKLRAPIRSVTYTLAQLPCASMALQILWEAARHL

Structure (SMILES)	IC50 [nM]
Cn1cccc1C(=O)NCc1ccc(Cl)c(Nc2nc3cc(C(=O)Nc4ccc(F)c(Cl)c4)c(OCC(F)F)cc3n2C)c1Cl [Example 142]	2.5
Cn1c(Nc2c(Cl)ccc(CNC(=O)C(O)C(F)(F)F)c2Cl)nc2cc(C(=O)NCC(F)(F)F)c(OCC(F)F)cc21 (centres unmarked) [Example 96]	14
Cn1c(Nc2c(Cl)ccc(CNC(=O)C(C)(F)F)c2Cl)nc2cc(C(=O)NCC(F)(F)F)c(OCC(F)F)cc21 [Example 95]	13
CC(C)(C)C(=O)NCc1ccc(Cl)c(Nc2nc3cc(OC(F)F)c(C(=O)N[C@H]4CC[C@H](C(F)(F)F)CC4)cc3[nH]2)c1Cl [Example 78]	8
Cn1c(Nc2c(Cl)ccc(CNC(=O)C3(C(F)(F)F)CC3)c2Cl)nc2cc(C(=O)Nc3ccc(F)c(Cl)c3)c(OCC(F)F)cc21 [Example 174]	< 1
Cn1c(Nc2c(Cl)ccc(CNC(=O)C(N)C(F)(F)F)c2Cl)nc2cc(C(=O)NCC(F)(F)F)c(OCC(F)F)cc21 (centres unmarked) [Example 87]	221
Cn1c(Nc2c(Cl)ccc(CNC(=O)C(C)(C)CO)c2Cl)nc2cc(C(=O)NCC(F)(F)F)c(OCC(F)F)cc21 [Example 126]	72
Cn1c(Nc2c(Cl)ccc(CNC(=O)C(C)(C)C)c2Cl)nc2cc(C(=O)Nc3ccc(Br)cc3)c(F)cc21 [Example 7]	1
COC(C)(C)C(=O)NCc1ccc(Cl)c(Nc2nc3cc(C(=O)NCC(F)(F)F)c(OCC(F)F)cc3n2C)c1Cl [Example 130]	3
Cn1c(Nc2c(Cl)ccc(CNC(=O)C(C)(C)C)c2Cl)nc2cc(C(=O)Nc3ccc(F)c(Cl)c3)c(OCCF)cc21 [Example 177, N-(3-Chloro-4-fluoro-phenyl)-2-{2,6-dichloro-3-[(2,2-dimethyl-propionylamino)-methyl]-phenylamino}-6-(2-fluoroethoxy)-1-methyl-1H-benzimidazole-5-carboxylic acid amide]	< 1
CC(=O)NCc1ccc(Cl)c(Nc2nc3cc(C(=O)NCC(F)(F)F)c(OCC(F)F)cc3n2C)c1Cl [Example 115]	300
Cn1c(Nc2c(Cl)ccc(CNC(=O)C(C)(C)O)c2Cl)nc2cc(C(=O)NCC(F)(F)F)c(OCC(F)F)cc21 [Example 108]	59
Cn1c(Nc2c(Cl)ccc(CNC(=O)c3ccc(Cl)s3)c2Cl)nc2cc(C(=O)NCC(F)(F)F)c(OCC(F)F)cc21 [Example 92]	9
CC(C)C(=O)NCc1ccc(Cl)c(Nc2nc3cc(C(=O)NCC(F)(F)F)c(OCC(F)F)cc3n2C)c1Cl [Example 110]	8
Cn1c(Nc2c(Cl)ccc(CNC(=O)c3cc[nH]n3)c2Cl)nc2cc(C(=O)Nc3ccc(F)c(Cl)c3)c(OCC(F)F)cc21 [Example 134]	8
Cn1c(Nc2c(Cl)ccc(CNC(=O)C(C)(O)C(F)(F)F)c2Cl)nc2cc(C(=O)Nc3ccc(F)c(Cl)c3)c(OCC(F)F)cc21 (centres unmarked) [Example 149]	1
Cn1c(Nc2c(Cl)ccc(CNC(=O)C3(C(F)(F)F)CCC3)c2Cl)nc2cc(C(=O)NCC(F)(F)F)c(OCC(F)F)cc21 [Example 86]	< 1
Cn1c(Nc2c(Cl)ccc(CNC(=O)C(C)(C)C(F)(F)F)c2Cl)nc2cc(C(=O)Nc3ccc(F)c(Cl)c3)c(OCC(F)F)cc21 [Example 176]	< 1
Cn1c(Nc2c(Cl)ccc(CNC(=O)c3ccno3)c2Cl)nc2cc(C(=O)NCC(F)(F)F)c(OCC(F)F)cc21 [Example 107]	106
COCC(=O)NCc1ccc(Cl)c(Nc2nc3cc(C(=O)Nc4ccc(F)c(Cl)c4)c(OCC(F)F)cc3n2C)c1Cl [Example 163]	5
Cn1c(Nc2c(Cl)ccc(CNC(=O)C3(C#N)CC3)c2Cl)nc2cc(C(=O)Nc3ccc(F)c(Cl)c3)c(OCC(F)F)cc21 [Example 145]	7
CCC(=O)NCc1ccc(Cl)c(Nc2nc3cc(C(=O)Nc4ccc(F)c(Cl)c4)c(OCC(F)F)cc3n2C)c1Cl [Example 146]	2
Cn1c(Nc2c(Cl)ccc(CNC(=O)c3c(F)cccc3Cl)c2Cl)nc2cc(C(=O)Nc3ccc(F)c(Cl)c3)c(OCC(F)F)cc21 [Example 158]	< 1
